Test results as given in patent publication US8012974B2, “Pyrrolopyrazinyl urea kinase inhibitors” (Roche Palo Alto LLC, priority 2008, dated 2011).

Biological target: T1, JAK3: Recombinant human kinase domain (810-1124) (Homo sapiens, UniProt P52333)
T1 construct: JAK3: Recombinant human kinase domain (810-1124); made in house
Assay: Determination of IC50 of Janus Kinase (JAK) inhibition, JAK3, radioactive end-point assay with 33P-ATP
Type: biochemical
Settings: no additive; 0.1 nM JAK3, ATP 1.5 uM, peptide 50 uM, 20 minutes; read-out: Ic50 h-jak3-sf21-c: no additive
Excerpt: Determination of IC50 of Janus Kinase (JAK) Inhibition:
Enzymes and peptide substrate used are described below: • JAK1: Recombinant human kinase domain (866-1154) from Invitrogen (Cat # PV4774) • JAK3: Recombinant human kinase domain (810-1124) made in house by Roche Palo Alto • JAK2: Recombinant human kinase domain (808-1132) from Millipore (Cat # 14-640) • Substrate: N-terminally biotinylated 14-mer peptide derived from activation loop of JAK1 with sequence of the peptide substrate: Biotin-[sequence]
Assay conditions used are described below: • Assay Buffer: JAK Kinase Buffer: 50 mM Hepes [pH 7.2], 10 mM MgCl2, 1 mM DTT, 1 mg/ml BSA. The assay is carried out in this buffer. • Assay Format The kinase activity of all three JAK kinases is measured using a radioactive, end-point assay and with trace amounts of ^33P-ATP. The assays are carried out in 96-well polypropylene plates. Experimental Method:
All concentrations are final in the reaction mixture and all incubations are carried at room temperature. […] 1 wash with water. • 6) Washed plates are dried in a 60° C. oven for between 1 to 2 hours. • 7) 70 ul of Microscint 20 scintillation fluid is added to each well of filter plates and after at least 30 minutes of incubation, radioactive counts are measured in a Perkinelmer microplate scintillation counter.

T1 sequence (P52333 810-1124): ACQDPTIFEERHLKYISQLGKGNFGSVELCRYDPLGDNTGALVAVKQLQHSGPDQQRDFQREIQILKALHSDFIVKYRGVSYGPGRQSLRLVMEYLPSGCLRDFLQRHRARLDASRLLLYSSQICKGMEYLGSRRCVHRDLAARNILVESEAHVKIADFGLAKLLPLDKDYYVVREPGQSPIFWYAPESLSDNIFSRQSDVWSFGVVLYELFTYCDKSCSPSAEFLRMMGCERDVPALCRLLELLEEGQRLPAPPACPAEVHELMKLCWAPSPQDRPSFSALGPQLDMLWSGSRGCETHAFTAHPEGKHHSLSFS

Row | Structure (SMILES) | IC50
1 | O=C(NCC1CCCCC1)Nc1cnc2[nH]ccc2n1 [Compound I-6, 1-Cyclohexylmethyl-3-(5H-pyrrolo[2,3-b]pyrazin-2-yl)-urea] | 326 nM
2 | O=C(NCCc1ccccc1)Nc1cnc2[nH]ccc2n1 [Compound I-10, 1-Phenethyl-3-(5H-pyrrolo[2,3-b]pyrazin-2-yl)-urea] | 144 nM
